Data: PMC5335563, “Proline dehydrogenase from Thermus thermophilus does not discriminate between FAD and FMN as cofactor” (Scientific Reports, 2017)
Blank lines part the entries; values can stand above or below the molecule they belong to.

Tests used:
[1] = molecular target: T1, MBP-TtProDH EE (apo-EE, reconstituted apo-EE) (Thermus thermophilus, UniProt Q72IB8, F10E/L12E, form not given); test: flavin fluorescence quenching titration; assay type: binding; conditions: 50 mM sodium phosphate, pH 7.4
T1 construct: gene TT_C1214; N-terminal MBP fusion kept; variant EE (F10E/L12E); E. coli BSV11 riboflavin auxotroph, apo form

[2] = molecular target: T1, MBP-TtProDH EE (apo-EE, reconstituted apo-EE); test: flavin fluorescence quenching titration; conditions: very weak binding, data not shown; 200 nM riboflavin; 50 mM sodium phosphate, pH 7.4

T1 sequence (Q72IB8 whole entry F10E/L12E, form open, the tested form may be a part): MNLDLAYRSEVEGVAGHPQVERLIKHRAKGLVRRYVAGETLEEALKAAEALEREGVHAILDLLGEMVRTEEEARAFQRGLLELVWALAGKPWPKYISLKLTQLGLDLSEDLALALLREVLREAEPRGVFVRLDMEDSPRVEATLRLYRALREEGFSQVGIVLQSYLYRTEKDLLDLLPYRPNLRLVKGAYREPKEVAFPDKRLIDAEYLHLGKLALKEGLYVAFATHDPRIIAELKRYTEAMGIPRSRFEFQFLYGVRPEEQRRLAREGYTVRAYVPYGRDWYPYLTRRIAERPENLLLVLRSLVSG

Kd ([1]; apoenzyme titrated into 200 nM FAD): 18 ± 0.5 nM
SMILES: Cc1cc2nc3c(=O)[nH]c(=O)nc-3n(C[C@H](O)[C@H](O)[C@H](O)COP(=O)(O)OP(=O)(O)OC[C@H]3O[C@@H](n4cnc5c(N)ncnc54)[C@H](O)[C@@H]3O)c2cc1C [FAD]

Kd ([1]; apoenzyme titrated into 200 nM FMN): 19.5 ± 0.8 nM
SMILES: Cc1cc2nc3c(=O)[nH]c(=O)nc-3n(C[C@H](O)[C@H](O)[C@H](O)COP(=O)(O)O)c2cc1C [FMN]

SMILES: Cc1cc2nc3c(=O)[nH]c(=O)nc-3n(C[C@H](O)[C@H](O)[C@H](O)CO)c2cc1C [riboflavin]
flavin fluorescence quenching titration [2]: riboflavin shows a very weak binding to the apoenzyme (data not shown)
